Laboratory results as given in patent publication US11814652B2, “Pluripotent stem cell differentiation-promoting agent” (Oriental Yeast Co., Ltd., priority 2018, dated 2023).

How the values were obtained:
[1] = test system: Human adipose tissue-derived mesenchymal stem cells; assay: Oil red O staining after adipocyte differentiation-induction of mesenchymal stem cells grown with β-NMN (Example 9); type: cell-based; details: growth medium supplemented with 0.1 mM or 0.25 mM of β-NMN; 14th day of adipocyte differentiation-induction; compared with 0 mM
Source text: The effects of culturing in the presence of β-NMN before adipocyte differentiation-induction of mesenchymal stern cells were examined. In the same manner as in Example 8, Human adipose tissue-derived mesenchymal stem cells (manufactured by Lonza, Cat #PT5006) were used as the mesenchymal stem cells. As a growth culture medium, a culture medium prepared by appropriately adding β-MNM to “MSCGM Bullet Kit” (manufactured by Lonza, Cat #PT3001) was used as in Example 8. As an adipocyte differentiation-inducing culture medium, a culture medium prepared by adjusting a DMEM-High Glucose medium to have a final concentration of fetal bovine serum of 10% by volume, a final concentration of IBMX of 0.5 mM, a final concentration of dexamethasone of 1 μM, a final concentration of indomethacin of 200 μM, and a final concentration of penicillin-streptomycin of 0.1% was used. The culture of the mesenchymal stem cells before differentiation-induction was performed in the same manner as in Example 8. The differentiation induction was performed in the same manner as in Example 8 except that the adipocyte differentiation-inducing culture medium was used instead of the bone differentiation-inducing culture medium. On the 14th day from the initiation of the differentiation-induction, the staining test and the cell RNA recovery were performed. […]

[2] = test system: human iPS cell strain 201B7; assay: RT-PCR of marker expression in iPS cells cultured in E6 differentiation-inducing medium with β-NMN (Example 1); type: cell-based; details: 3rd and 7th day after seeding, β-NMN 0.25 or 1 mM in E6 medium, compared to cells cultured in the absence of β-NMN
Procedure: The effect of β-NMN on the differentiation of three germ layers of the iPS cells was examined. As the iPS cells, the human iPS cell strain 201B7 was used. A U-bottom shape 96-well plate “Nunclon Sphera 96 U-well plate” (manufactured by Thermo Fisher Scientific) was seeded with iPS cells at 10,000 cells/well, and cultured in an E6 culture medium (manufactured by Gibco) as a differentiation-inducing culture medium adjusted to have a final concentration of β-NMN of 0, 0.25 or 1 mM, and a final concentration of Rock inhibitor of 10 μM for 1 day. The Rock inhibitor was added to suppress Rho-dependent apoptosis. On the 1st and 5th days after seeding, the culture medium was replaced with a culture medium obtained by removing the Rock inhibitor from the culture medium at the time of seeding. Cells on the 3rd and 7th days after seeding were sampled and subjected to RT-PCR to investigate the expression levels of undifferentiated markers (Nanog, Sox2, Oct3/4, Lin28a, Klf4), endoderm markers (Sox17, AFP), mesoderm markers (MSX1, Brachyury) and ectodermal markers (PAX6). […] The expression level of each marker was evaluated by PCR using the obtained cDNA. […]

iPS cells 201B7 strain [3] = assay: Cell number during mesodermal differentiation-induction in medium with β-NMN (Example 3); type: cell-based, human; details: mesodermal differentiation-inducing medium containing β-NMN 0.1, 0.25 or 1 mM; 7th day after seeding; versus medium not containing β-NMN
Procedure: The effects of β-NMN on the mesodermal differentiation-induction of iPS cells were examined. The 201B7 strain was used as the iPS cells. The iPS cells were seeded in a 24-well plate coated with Matrigel (manufactured by Corning Incorporated) according to the manufacturer's protocol at 1×10^5 cells/well. The cells in the 24-well plate were cultured in a culture medium for iPS cells adjusted to have a final concentration of Rock inhibitor of 10 μM for 1 day. From the 1st day after seeding, the culture medium was replaced with a culture medium prepared by adjusting a mesoderm differentiation-inducing culture medium of “STEMdiff Trilineage Differentiation kit” (manufactured by STEMCELL Technologies) to have a final concentration of β-NMN of 0, 0.1, 0.25, or 1 mM for 1 day. The culture medium was replaced with a culture medium prepared by adjusting a mesodermal differentiation-inducing culture medium to have final concentrations of both β-NMN and Rock inhibitor of 10 μM only on the 1st day after seeding. Cells of the 7th day after seeding were sampled and the cell numbers were counted. As a result, the number of the cells cultured in the mesodermal differentiation-inducing culture medium containing β-NMN was larger than the number of the cells cultured in the medium not containing β-NMN.

iPS cells 201B7 strain [4] = assay: Flow cytometry of Nestin/Pax6 ectodermal markers, differentiation-induction in medium with β-NMN (Example 2); type: cell-based, human; details: ectodermal differentiation-inducing medium with β-NMN 0.1, 0.25 or 1 mM; 2nd, 4th, 7th day; versus absence of β-NMN
Procedure: The effect of β-NMN on the ectodermal differentiation-induction of the iPS cells was examined. The 201B7 strain was used as the iPS cells. The iPS cells were seeded in a 12-well plate coated with Matrigel (manufactured by Corning Incorporated) according to the manufacturer's protocol at 8×10^5 cells/well. The cells in the 12-well plate were cultured in a culture medium prepared by adjusting an ectodermal differentiation-inducing culture medium of “STEMdiff Trilineage Differentiation kit” (manufactured by STEMCELL Technologies) to have a final concentration of β-NMN of 0, 0.1, 0.25, or 1 mM, and a final concentration of Rock inhibitor of 10 μM for 1 day. From the 1st day after seeding, the medium was replaced every day with a culture medium obtained by removing the Rock inhibitor from the culture medium at the time of seeding. […] Then, the cells were stained with a fluorescence-labeled anti-Nestin antibody (manufactured by Biolegend, clone 10C2) and a fluorescence-labeled anti-Pax6 antibody (manufactured by Becton, Dickinson and Company, clone O18-1330). After washing the stained cells, a flow cytometer “FACScaliber” (manufactured by Becton, Dickinson and Company) was used to analyze the fluorescence intensity of the anti-Nestin antibody and the fluorescence intensity of the anti-Pax6 antibody in each sample. […]

NC(=O)c1ccc[n+]([C@@H]2O[C@H](COP(=O)([O-])O)[C@@H](O)[C@H]2O)c1 [β-NMN, β-nicotinamide mononucleotide]
accumulation of lipid droplets (oil red O staining) [1]: more accumulation of lipid droplets
expression level of each undifferentiated marker (Nanog, Sox2, Oct3/4, Lin28a, Klf4) [2]: decreased
expression level of the differentiated marker (Sox17, AFP, MSX1, Brachyury, PAX6) [2]: increased
number of the cells (iPS cells 201B7 strain [3]): larger
ratio of Nestin-positive Pax6-positive cells (iPS cells 201B7 strain [4]): higher
